In patent publication US10045978B2 (AB SCIENCE, priority 2010, dated 2018):

System: patients with indolent mastocytosis with handicap bearing the D816V c-Kit mutation
Assay: Example 2 phase 2a study, efficacy
Format: in vivo, human
Parameters: mean reduction of FIS score / mean reduction of pruritus score / mean reduction in frequency of flushes / reduction of daily number of stools / reduction of daily number of micturition / AFIRMM score reduction: concentration or dose not given beside the values
Details: week 12
Source text: Eligible patients were aged >18 years, had previously documented indolent systemic, smoldering systemic or cutaneous mastocytosis as per the WHO classification with associated disability as the result of mast cell released mediators. Patients had to have a positive D816V c-Kit mutation status, i.e. documented presence of D816V mutation in at least one infiltrated organ including bone marrow or skin. For patients with prior documented presence of D816V mutation in at least one infiltrated organ (bone marrow or skin), no test was performed at the screening visit; however, for those patients without such documentation it was necessary to perform c-Kit molecular analysis prior to randomization. Skin biopsy and optionally (unless patients had no cutaneous lesion) a bone marrow aspirate or biopsy, were performed at baseline to confirm the presence of D816V mutation and to count mast cells in the infiltrated organs. All skin biopsies, bone marrow aspirate or biopsies, performed for this study were sent to the AB Science central laboratory for sequencing and mast cell counting. Patients were classified as having a handicap if after appropriate symptomatic treatments they fulfilled at least one of the following a priori criteria: number of flushes/week ≥7; pruritus score ≥6; number of stools ≥4/day (i.e. diarrhea); micturition frequency ≥8/day (i.e. pollakiuria); Hamilton rating for depression ≥10; Fatigue Impact Scale (FIS) score ≥40; or EORTC quality-of-life questionnaire (QLQ-C30) score ≥60. Patients were excluded if they experienced inadequate organ function defined via blood test levels, or an Eastern Cooperative Oncology Group performance status >2. Other exclusion criteria included: life expectancy <6 months, severe or uncontrolled medical disease, and patients who were pregnant or nursing.
In accordance to the AFIRMM study (Hermine O, et al., 2008, PLoS ONE. 3:e2266), evaluation of treatment response was based upon the change of clinical symptoms associated with a patient's handicaps at week 12 relative to baseline. Efficacy was assessed on the symptoms of mastocytosis. Primary efficacy endpoints were treatment effect on the pruritus score, the number of flushes per week, the Hamilton score, and the Fatigue Impact scale.

[1] = patients with this handicap at baseline

Q: `Cc1ccc(NC(=O)c2ccc(CN3CCN(C)CC3)cc2)cc1Nc1nc(-c2cccnc2)cs1` [masitinib, 4-(4-methylpiperazin-1-ylmethyl)-N-[4-methyl-3-(4-pyridin-3ylthiazol-2-ylamino)phenyl]benzamide] was tested. Which AFIRMM score reduction did it give?
A: Its AFIRMM score reduction is 32.0%.

Q: What about the Hamilton score improvement (PP population) of the same molecule?
A: Its Hamilton score improvement is 27.0%.

Q: And the “mean reduction in frequency of flushes” value (PP population)?
A: The value was 45.5%.

Q: And the “mean reduction of FIS score” value (PP population)?
A: The value was 51.8%.

Q: And the “mean reduction of pruritus score” value (PP population)?
A: Its value is 46.0%.

Q: And the “overall response rate (improvement ≥50%)” value (PP population (14 of 20 patients))?
A: The value was 70%.

Q: What about the patients remaining stable (PP population (four patients)) of the same molecule?
A: The patients remaining stable was 20%.

Q: And the “reduction of daily number of stools” value (patients with diarrhea at baseline)?
A: The value was 41.3%.

Q: And the “reduction of daily number of micturition” value (patients with pollakiuria at baseline)?
A: Its value is 30.3%.

Q: And the Hamilton score improvement [1]?
A: Its Hamilton score improvement is 44.3%.

Q: And the “mean reduction in frequency of flushes” value [1]?
A: The value was 55.3%.

Q: What about the “mean reduction of FIS score” value [1] of the same molecule?
A: Its value is 45.6%.
